In US20260070886A1, “QUINOLINE PIPERAZINE DERIVATIVES, PHARMACEUTICAL COMPOSITION AND USES THEREOF” (priority 2022, published 2026):

What was measured:
Assay type in all cases: cell-based
[1] = system: Non-small cell lung cancer cell lines; test: Cell toxicity assay, overall statement; settings: summary in words of Table 6
Source text: (§1) The following human derived non-small cell lung cancer cell lines were used to test the efficiency of the compounds to cause cell death and assess the anti-cancer properties of said compounds: 1. A549 cells: adenocarcinomic human alveolar basal epithelial cells; these cells are used as models for the study of lung cancer and the development of drug therapies against it • 2. NCI-H-460 cells are also human lung cancer cells, and • 3. NCI-H-522 cells are also human lung cancer cells.
(§2) 500 cells/well/30 μL were seeded in a 384 well cell culture plate. Incubated over night at 37° C., 5% CO2 in cell culture incubator. 10 μL of 4× compound was added to the plates, and incubated for 72 hours at 37° C., 5% CO2 in cell culture incubator. Assay DMSO control were included for 0% cytotoxicity control. Assay was terminated by addition of 10 μL of the reagent CTG 2.0 detection reagent #G9242. Plates were incubated for 20 minute incubation at room temperature with shaking Plate were read in Envision. Ultrasensitive luminescence and data was analyzed and percent cytotoxicity of compounds was determined against DMSO control.
(§3) All the compounds, A1-A116, were tested for cell toxicity using said non-small cell lung cancer cell lines using the above described method.
These selected derivatives of Formula A were further tested to confirm their efficiency as anti-cancer compounds.

A549 cells = test: Cell cytotoxicity assay, A549 cells; settings: Homo sapiens, 72 hours, percent cytotoxicity against DMSO control; for cytotoxicity at 1 µM: 1 μM compound, read-out: Cell toxicity A549 cells 1 μM; for cytotoxicity at 10 µM: 10 μM compound, read-out: Cell toxicity A549 cells 10 μM
Source text: as §1, §2, §3

NCI-H-460 cells = test: Cell cytotoxicity assay, NCI-H-460 cells; settings: Homo sapiens, NCI-H460, 72 hours, percent cytotoxicity against DMSO control; for cytotoxicity at 1 µM: 1 μM compound, read-out: Cell toxicity NCI-H-460 cells 1 μM; for cytotoxicity at 10 µM: 10 μM compound, read-out: Cell toxicity NCI-H-460 cells 10 μM
Source text: as §1, §2, §3

NCI-H-522 cells = test: Cell cytotoxicity assay, NCI-H-522 cells; settings: Homo sapiens, NCI-H522, 72 hours, percent cytotoxicity against DMSO control; for cytotoxicity at 1 µM: 1 μM compound, read-out: Cell toxicity NCI-H-522 cells 1 μM; for cytotoxicity at 10 µM: 10 μM compound, read-out: Cell toxicity NCI-H-522 cells 10 μM
Source text: as §1, §2, §3

SMILES	activity against Non-small cell lung cancer (cell toxicity) [1]	cytotoxicity at 1 µM (A549 cells) [%]	cytotoxicity at 10 µM (A549 cells) [%]	cytotoxicity at 1 µM (NCI-H-460 cells) [%]	cytotoxicity at 10 µM (NCI-H-460 cells) [%]	cytotoxicity at 1 µM (NCI-H-522 cells) [%]	cytotoxicity at 10 µM (NCI-H-522 cells) [%]
FC(F)(F)c1cc(N2CCN(c3ccnc4cc(Cl)ccc34)CC2)nc(N2CCCCC2)n1 [Compound A20, 7-chloro-4-(4-(2-(piperidin-1-yl)-6-(trifluoromethyl)pyrimidin-4-yl)piperazin-1-yl)quinoline]	active	37	89	-10	60	8	43
COc1cccc(Nc2nc(N3CCN(c4ccnc5cc(Cl)ccc45)CC3)cc(C(F)(F)F)n2)c1 [Compound A8, 4-(4-(7-chloroquinolin-4-yl)piperazin-1-yl)-N-(3-methoxyphenyl)-6-(trifluoromethyl)pyrimidin-2-amine]	active	14	5	-9	-3	1	7
FC(F)(F)c1cc(N2CCN(c3ccnc4cc(Cl)ccc34)CC2)nc(Nc2ccncc2)n1 [Compound A36, 4-(4-(7-chloroquinolin-4-yl)piperazin-1-yl)-N-(pyridin-4-yl)-6-(trifluoromethyl)pyrimidin-2-amine]	active	0	99	-11	98	2	72
FC(F)(F)c1cc(N2CCN(c3ccnc4cc(Cl)ccc34)CC2)nc(N2CCNCC2)n1 [Compound A22, 7-chloro-4-(4-(2-(piperazin-1-yl)-6-(trifluoromethyl)pyrimidin-4-yl)piperazin-1-yl)quinoline]	active	11	17	-14	-2	1	11
COc1cc(Nc2nccc(N3CCN(c4ccnc5cc(Cl)ccc45)CC3)n2)cc(OC)c1 [Compound A41, 4-(4-(7-chloroquinolin-4-yl)piperazin-1-yl)-N-(3,5-dimethoxyphenyl)pyrimidin-2-amine]	active	23	42	2	28	7	56
COc1cc(F)cc(Nc2nc(C)cc(N3CCN(c4ccnc5cc(Cl)ccc45)CC3)n2)c1 [Compound A5, 4-(4-(7-chloroquinolin-4-yl)piperazin-1-yl)-N-(3-fluoro-5-methoxyphenyl)-6-methylpyrimidin-2-amine]	active	24	5	-8	7	6	22
COc1cc(Nc2nc(N3CCN(c4ncnc5ccccc45)CC3)cc(C(F)(F)F)n2)cc(OC)c1 [Compound A47, N-(3,5-dimethoxyphenyl)-4-(4-(quinazolin-4-yl)piperazin-1-yl)-6-(trifluoromethyl)pyrimidin-2-amine]	active	38	44	4	12	45	43
